Laboratory results from article PMC10218596 (International Journal of Molecular Sciences, 2023).

Assays:
hα6/α3β4 = target: T1, hα6/α3β4 (Homo sapiens, UniProt P30926+P32297+Q15825); experiment: Electrophysiological assay, ACh concentration-response (Xenopus oocytes); format: cell-based; details: ACh on hα6/α3β4
T1 construct: splicing the N-terminal extracellular domain of the α6 subunit with the α3 subunit; host or cells: Xenopus laevis oocytes injected with cRNA (1:1)

h[α6I56V/α3]β4 = h[α6I56V/α3]β4 (Homo sapiens, UniProt P30926+Q15825, I89V, form not given); format: cell-based; details: ACh on h[α6I56V/α3]β4
h[α6I56V/α3]β4, sequence (Q15825 26-239 I89V, form open): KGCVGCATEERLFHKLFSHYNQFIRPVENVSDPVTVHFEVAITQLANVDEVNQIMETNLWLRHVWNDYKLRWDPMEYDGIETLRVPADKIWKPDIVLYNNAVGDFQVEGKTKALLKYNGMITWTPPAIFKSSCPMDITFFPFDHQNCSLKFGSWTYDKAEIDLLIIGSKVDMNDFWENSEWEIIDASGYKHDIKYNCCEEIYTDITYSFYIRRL
h[α6I56V/α3]β4, sequence (P30926 22-498, form open): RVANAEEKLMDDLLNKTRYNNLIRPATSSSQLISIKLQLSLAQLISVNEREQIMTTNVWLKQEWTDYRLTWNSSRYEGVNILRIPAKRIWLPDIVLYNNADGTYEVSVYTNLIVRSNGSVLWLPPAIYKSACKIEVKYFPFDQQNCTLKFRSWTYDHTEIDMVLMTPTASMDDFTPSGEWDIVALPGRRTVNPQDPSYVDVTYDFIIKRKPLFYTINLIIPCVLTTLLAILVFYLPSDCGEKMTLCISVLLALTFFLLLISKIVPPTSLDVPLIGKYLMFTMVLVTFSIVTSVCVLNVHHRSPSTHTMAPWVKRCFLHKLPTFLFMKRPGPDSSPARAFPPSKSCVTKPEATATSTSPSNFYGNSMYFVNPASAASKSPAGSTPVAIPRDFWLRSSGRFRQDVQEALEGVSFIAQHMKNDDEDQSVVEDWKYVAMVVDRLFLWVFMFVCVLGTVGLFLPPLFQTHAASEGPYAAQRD
h[α6I56V/α3]β4, sequence (P32297 241-505 partner, form open): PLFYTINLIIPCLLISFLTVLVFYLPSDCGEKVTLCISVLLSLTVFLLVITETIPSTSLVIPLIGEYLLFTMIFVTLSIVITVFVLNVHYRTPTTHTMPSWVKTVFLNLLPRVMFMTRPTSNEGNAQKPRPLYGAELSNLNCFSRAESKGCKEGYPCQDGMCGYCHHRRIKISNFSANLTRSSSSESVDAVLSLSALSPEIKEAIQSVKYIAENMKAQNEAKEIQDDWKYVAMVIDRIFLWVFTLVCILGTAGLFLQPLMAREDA

T1 sequence (Q15825+P32297 fused with the stated changes): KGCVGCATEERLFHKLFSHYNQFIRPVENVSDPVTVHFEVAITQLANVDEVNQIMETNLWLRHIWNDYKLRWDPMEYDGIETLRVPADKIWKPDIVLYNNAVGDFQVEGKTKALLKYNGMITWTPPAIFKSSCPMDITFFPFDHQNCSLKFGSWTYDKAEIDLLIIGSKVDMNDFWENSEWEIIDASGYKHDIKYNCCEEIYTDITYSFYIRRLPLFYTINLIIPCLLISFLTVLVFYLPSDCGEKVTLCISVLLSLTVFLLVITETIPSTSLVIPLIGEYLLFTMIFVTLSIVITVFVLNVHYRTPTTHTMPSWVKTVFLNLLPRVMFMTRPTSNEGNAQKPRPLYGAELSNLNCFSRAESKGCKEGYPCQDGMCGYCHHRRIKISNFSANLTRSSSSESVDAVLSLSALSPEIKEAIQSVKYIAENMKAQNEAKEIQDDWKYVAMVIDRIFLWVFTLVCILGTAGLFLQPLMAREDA
T1 sequence (P30926 22-498): as the sequence (P30926 22-498, form open) above

## CC(=O)OCC[N+](C)(C)C [ACh, acetylcholine chloride]
hα6/α3β4
  Hill Slope: 1.4 (1.2–1.7)
h[α6I56V/α3]β4
  Hill Slope: 1.3 (1.1–1.5)
